{"source": "patent US7632814B2", "about": "“HYD1 peptides as anti-cancer agents” (University of South Florida, priority 2006, dated 2009)", "key": {"H929 cells": {"test_system": "H929 cells", "assay": "Cell adhesion to HS-5 bone marrow stroma cells (CMFDA fluorescence)", "assay_type": "cell-based", "conditions": "varying concentrations, 30 minutes pre-incubation, two hours adhesion", "experimental": "(§1) FIGS. 31A and 31B are graphs showing that HYD1 blocks adhesion of 8226 but not H929 cells to the bone marrow stroma cell line HS-5. Varying concentrations of either HYD1, HYD1S or a 1:100 dilution of a β1 integrin functional blocking antibody was added to either (FIG. 31A) CMFDA labeled 8226 cells or (FIG. 31B) CMFDA labeled H929 cells for 30 minutes prior to adding fluorescently labeled cells to either HS-5 or BSA coated wells for two hours. Unadhered cells were gently removed and adherent cells were quantified by total fluorescence. The independent experiments were performed and similar results were obtained.\n(§2) Quantification of cell adhesion to HS-5 bone marrow stroma cells. Adhesion of 8226 or H929 cells to the HS-5 bone marrow stromal cells was performed as previously described (Nefedova Y et al. Leukemia, 2003; 17:1175-1182). Briefly, HS-5 cells were plated at a density of 500,000 cell/ml in a 96 well plate overnight. […] Cells were then counted and placed at a density of one million cells per ml and varying concentrations of peptide were added for 30 minutes prior to addition of 100 μl of cells to either HS-5 or BSA coated plates. Cells were allowed to adhere for two hours and unbound cells were washed with three gentle washes and total fluorescence was detected by a Victor plate reader, at 485 nm excitation and 535 nm emission. […]"}, "8226 cells [1]": {"test_system": "8226 cells", "assay": "Cell adhesion to HS-5 bone marrow stroma cells (CMFDA fluorescence)", "assay_type": "cell-based", "conditions": "varying concentrations, 30 minutes pre-incubation, two hours adhesion", "experimental": "as §1, §2"}, "H929 MM": {"test_system": "H929 MM", "assay": "SCID-Hu in vivo model, tumor burden", "design": "species or system SCID mice", "conditions": "H929, 8 mg/kg I.P. daily for 14 days starting day 28", "experimental": "Tumor burden was measured by circulating […] levels. On day 28 (before drug treatment), measurements were recorded for each individual mouse and subsequent values obtained weekly are represented as a ratio of day 28 (day X/day 28). N=4 mice per group. HYD1 was administered I.P. at 8 mg/kg daily for 14 days (starting day 28).\nSCID-Hu model. The SCID-Hu model was performed as previously described (Zhu K et al. Blood, 2005; 105:4759-4766). Briefly, SCID/Beige mice 4-6 weeks old were purchased from Taconic (Germantown, N.Y.). Fetal tissue (18-23 weeks) was obtained from Advance Bioscience Resource (Alameda, Calif.) in compliance with state and federal government regulations. Two bones were surgically implanted in the mammary fat pad of 6-8 week old female SCID mice. […] At 28 days, baseline tumor burden was quantified in the sera using either a lambda (8226) or kappa (H929) ELISA kit per manufacture instructions (Bethyl, Montgomery, Tex.) and mice were randomized into treatment groups. […] Tumor burden was assessed weekly by measuring kappa or lambda levels in the sera.\nThe SCID-Hu model consists of implanting human fetal bone into the mammary mouse fat pad of SCID mice. […] Human paraprotein can be measured in the mouse sera and levels represent a good marker for evaluating tumor burden and response to chemotherapy. […]"}, "8226 cells [2]": {"test_system": "8226 cells", "assay": "Detection of apoptosis, annexin V staining and FACS, suspension culture", "assay_type": "cell-based", "experimental": "FIG. 17 is a graph showing that HYD1 induces apoptosis as a single agent in 8226 and H929 cells cultured in suspension. 8226 and H929 cells were either treated with varying concentrations of HYD1 or vehicle control (equal volume sterile double distilled water) for 24 hours and apoptotic cells were detected by FACS analysis of annexin V positive cells. HYD1 specific apoptosis equals cell death due to peptide minus any apoptosis detected in control cells.\nDetection of Apoptosis. A flow cytometric assay measuring Annexin V/PI staining was used to measure apoptotic cells following 24 hours of peptide exposure as previously described (Damiano J S et al. Blood, 1999; 93:1658-1667). The assay was performed in triplicate and 3 independent experiments were performed. Caspase 3 and 8 activity was measured at 6 and 24 hrs post peptide treatment per manufactures' instructions (BD Biosciences, San Jose, Calif.). The caspase assays were performed in triplicate and repeated twice.\nMyeloma cells were plated at a density of 400,000 cells per ml in a 24 well plate. Cells were treated with the indicated dose of the peptide for 24 hours. Following 24 hrs of peptide exposure, apoptotic cells were detected using Annexin V staining and FACS analysis. Ten thousand events were analyzed by flow cytometry (Becton Dickinson, San Jose, Calif.). Experiments were performed in triplicate and repeated twice. Shown is a representative figure."}}, "note": "Where no end group is shown, it is not given here. [ ]: non-standard residue; d: D form."}
{"substance": "kikmviswkg ([dK][dI][dK][dM][dV][dI][dS][dW][dK]G) [HYD1]", "values": [{"measurement": "blocking of H929 cells binding to HS-5 cells", "setting": "H929 cells", "value": "no effect"}, {"measurement": "blocking of 8226 cells binding to HS-5 cells", "setting": "8226 cells [1]", "value": "partially blocked"}, {"measurement": "tumor growth in vivo compared to vehicle control", "setting": "H929 MM", "value": "reduces H929 MM growth in vivo"}, {"measurement": "induction of annexin V positive cells", "setting": "8226 cells [2]; suspension culture, single agent, 24 hours", "value": "dose dependent induction of annexin V positive cells"}, {"measurement": "melphalan-induced apoptosis in cells cultured in suspension", "setting": "8226 cells [2]; suspension, peptide with melphalan", "value": "increased melphalan-induced apoptosis"}]}
